These results are taken from paper PMC10116596 (Biochemistry, 2023).

The assay has as its target LcrH1–168 (Yersinia pestis, UniProt P21207). Format: binding, Y. pestis. The conditions noted are these: pH 7.8.

LcrH1–168, sequence (P21207 whole entry, looked up): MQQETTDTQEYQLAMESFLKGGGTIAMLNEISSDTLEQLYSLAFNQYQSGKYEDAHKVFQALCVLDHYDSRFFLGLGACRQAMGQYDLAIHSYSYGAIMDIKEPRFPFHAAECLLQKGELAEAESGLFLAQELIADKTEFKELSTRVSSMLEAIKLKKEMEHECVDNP

Take Ac-QGVQLPAPLA-NH2 [YopB48–57]: the ΔH result is “–44 ± 15 kJ/mol” and the “–TΔS” value was found to be 5.5 ± 3.59 kcal/mol.
For Ac-QVPELIKPSQ-NH2 [YopD56–65], the ΔH entry is “–51 ± 2 kJ/mol” and the “–TΔS” value was 6.69 ± 0.48 kcal/mol.
